Results as given in the kinase profiling compilation of Christmann-Franck et al. (2016).

Experiments:
Assay in all cases: radiometric filter-binding kinase assay
PHKG1 (human) = PHKG1 (human) (UniProt Q16816); details: compound 100.0 µM; ATP 50 µM
[1] = system: SGK1 (human), O00141 [S422D]; details: compound 100.0 µM; ATP 20 µM
MAPKAPK3 (human) = MAPKAPK3 (human) (UniProt Q16644); details: compound 100.0 µM; ATP 20 µM
MARK1 (human) = MARK1 (human) (UniProt Q9P0L2); details: compound 100.0 µM; ATP 20 µM
MAPK9 (human) = MAPK9 (human) (UniProt P45984); details: compound 100.0 µM; ATP 20 µM
PTK6 (human) = PTK6 (human) (UniProt Q13882); details: compound 100.0 µM; ATP 20 µM
ABL1 (human) = ABL1 (human) (UniProt P00519); details: compound 100.0 µM; ATP 5 µM
PIM1 (human) = PIM1 (human) (UniProt P11309); details: compound 100.0 µM; ATP 20 µM
AURKB (human) = AURKB (human) (UniProt Q96GD4); details: compound 100.0 µM; ATP 20 µM
STK16 (human) = STK16 (human) (UniProt O75716); details: compound 100.0 µM; ATP 50 µM
MAP3K9 (human) = MAP3K9 (human) (UniProt P80192); details: compound 100.0 µM; ATP 20 µM
BRSK1 (human) = BRSK1 (human) (UniProt Q8TDC3); details: compound 100.0 µM; ATP 20 µM
SRPK1 (human) = SRPK1 (human) (UniProt Q96SB4); details: compound 100.0 µM; ATP 50 µM
MAP2K1 (human) = MAP2K1 (human) (UniProt Q02750); details: compound 100.0 µM; ATP 5 µM
FGFR1 (human) = FGFR1 (human) (UniProt P11362); details: compound 100.0 µM; ATP 20 µM
MAP2K2 (human) = MAP2K2 (human) (UniProt P36507); details: compound 100.0 µM; ATP 5 µM
TBK1 (human) = TBK1 (human) (UniProt Q9UHD2); details: compound 100.0 µM; ATP 50 µM
PDPK1 (human) = PDPK1 (human) (UniProt O15530); details: compound 100.0 µM
TTK (human) = TTK (human) (UniProt P33981); details: compound 100.0 µM; ATP 20 µM
CSNK2A1 (human) = CSNK2A1 (human) (UniProt P68400); details: compound 100.0 µM; ATP 5 µM
MAPK15 (human) = MAPK15 (human) (UniProt Q8TD08); details: compound 100.0 µM; ATP 5 µM
GCK (human) = GCK (human) (UniProt Q12851); details: compound 100.0 µM; ATP 20 µM
MARK4 (human) = MARK4 (human) (UniProt Q96L34); details: compound 100.0 µM; ATP 50 µM
RIPK2 (human) = RIPK2 (human) (UniProt O43353); details: compound 100.0 µM; ATP 20 µM
MAPK14 (human) = MAPK14 (human) (UniProt Q16539); details: compound 100.0 µM; ATP 50 µM
IRAK4 (human) = IRAK4 (human) (UniProt Q9NWZ3); details: compound 100.0 µM; ATP 20 µM
PIM3 (human) = PIM3 (human) (UniProt Q86V86); details: compound 100.0 µM; ATP 20 µM
CHEK2 (human) = CHEK2 (human) (UniProt O96017); details: compound 100.0 µM; ATP 20 µM
CHEK1 (human) = CHEK1 (human) (UniProt O14757); details: compound 100.0 µM; ATP 20 µM
MAPK3 (human) = MAPK3 (human) (UniProt P27361); details: compound 100.0 µM; ATP 5 µM
[2] = system: AKT2 (human), P31751 [S474D]; details: compound 100.0 µM; ATP 50 µM
[3] = system: RPS6KB1 (human), P23443 [T412E]; details: compound 100.0 µM; ATP 20 µM
FLT1 (human) = FLT1 (human) (UniProt P17948); details: compound 100.0 µM; ATP 20 µM
MAPK13 (human) = MAPK13 (human) (UniProt O15264); details: compound 100.0 µM; ATP 5 µM
PAK6 (human) = PAK6 (human) (UniProt Q9NQU5); details: compound 100.0 µM; ATP 20 µM
AURKA (human) = AURKA (human) (UniProt O14965); details: compound 100.0 µM; ATP 5 µM
JAK2 JH1 JH2 (human) = JAK2 JH1 JH2 (human) (UniProt O60674); details: compound 100.0 µM; ATP 5 µM
PAK7 (human) = PAK7 (human) (UniProt Q9P286); details: compound 100.0 µM; ATP 20 µM
PLK1 (human) = PLK1 (human) (UniProt P53350); details: compound 100.0 µM; ATP 5 µM
DYRK2 (human) = DYRK2 (human) (UniProt Q92630); details: compound 100.0 µM; ATP 50 µM

Chain of PDPK1 (human) (O15530 whole entry, looked up): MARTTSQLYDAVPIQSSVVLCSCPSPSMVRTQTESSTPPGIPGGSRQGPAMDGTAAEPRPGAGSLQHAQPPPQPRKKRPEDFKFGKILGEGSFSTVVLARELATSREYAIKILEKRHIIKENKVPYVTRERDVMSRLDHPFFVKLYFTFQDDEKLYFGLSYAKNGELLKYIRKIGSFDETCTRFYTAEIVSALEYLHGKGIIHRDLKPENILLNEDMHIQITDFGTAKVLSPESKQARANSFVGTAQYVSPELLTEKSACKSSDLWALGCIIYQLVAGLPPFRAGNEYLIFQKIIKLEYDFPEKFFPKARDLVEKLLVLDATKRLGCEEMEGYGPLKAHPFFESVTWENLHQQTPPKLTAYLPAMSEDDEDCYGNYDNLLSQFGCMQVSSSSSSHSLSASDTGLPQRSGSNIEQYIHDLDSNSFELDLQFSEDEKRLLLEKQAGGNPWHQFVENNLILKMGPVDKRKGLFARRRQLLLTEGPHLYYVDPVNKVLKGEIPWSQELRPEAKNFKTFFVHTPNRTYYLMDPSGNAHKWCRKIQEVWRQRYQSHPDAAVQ
Chain of AKT2 (human), P31751 [S474D] (P31751 whole entry S474D, looked up): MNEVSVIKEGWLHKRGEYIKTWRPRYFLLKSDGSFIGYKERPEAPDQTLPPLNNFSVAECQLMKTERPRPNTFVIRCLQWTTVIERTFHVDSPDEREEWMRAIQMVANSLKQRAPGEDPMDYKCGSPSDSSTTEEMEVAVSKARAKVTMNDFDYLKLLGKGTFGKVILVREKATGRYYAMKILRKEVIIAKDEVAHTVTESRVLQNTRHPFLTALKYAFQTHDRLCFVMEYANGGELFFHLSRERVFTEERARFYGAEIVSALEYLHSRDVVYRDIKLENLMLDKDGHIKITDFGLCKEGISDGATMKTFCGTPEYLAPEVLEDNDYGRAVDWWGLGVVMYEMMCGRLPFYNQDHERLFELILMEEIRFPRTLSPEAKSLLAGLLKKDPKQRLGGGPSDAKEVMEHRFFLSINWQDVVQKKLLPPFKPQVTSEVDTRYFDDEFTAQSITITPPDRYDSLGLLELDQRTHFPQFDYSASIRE
Chain of FGFR1 (human) (P11362 whole entry, looked up): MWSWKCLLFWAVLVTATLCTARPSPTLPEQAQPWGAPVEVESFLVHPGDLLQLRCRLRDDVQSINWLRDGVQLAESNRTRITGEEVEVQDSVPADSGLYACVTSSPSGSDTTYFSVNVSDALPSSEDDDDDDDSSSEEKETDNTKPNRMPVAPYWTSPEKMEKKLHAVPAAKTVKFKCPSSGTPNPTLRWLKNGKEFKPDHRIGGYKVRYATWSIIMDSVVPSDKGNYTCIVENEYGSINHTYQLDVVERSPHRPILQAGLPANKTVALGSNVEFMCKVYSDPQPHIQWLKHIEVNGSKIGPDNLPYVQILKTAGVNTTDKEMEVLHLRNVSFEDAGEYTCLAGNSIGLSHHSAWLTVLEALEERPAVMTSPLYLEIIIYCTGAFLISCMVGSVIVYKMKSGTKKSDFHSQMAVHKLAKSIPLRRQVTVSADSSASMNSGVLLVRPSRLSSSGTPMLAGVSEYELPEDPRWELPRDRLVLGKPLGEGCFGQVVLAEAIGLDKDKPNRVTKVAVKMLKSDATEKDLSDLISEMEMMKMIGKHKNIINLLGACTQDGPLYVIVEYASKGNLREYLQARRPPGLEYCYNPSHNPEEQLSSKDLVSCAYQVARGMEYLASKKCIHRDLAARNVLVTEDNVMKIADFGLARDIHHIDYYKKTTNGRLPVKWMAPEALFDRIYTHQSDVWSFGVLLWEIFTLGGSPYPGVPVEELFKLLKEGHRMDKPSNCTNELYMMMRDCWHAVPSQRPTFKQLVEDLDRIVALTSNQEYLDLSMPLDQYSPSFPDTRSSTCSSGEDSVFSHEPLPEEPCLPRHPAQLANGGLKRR
Chain of RIPK2 (human) (O43353 whole entry, looked up): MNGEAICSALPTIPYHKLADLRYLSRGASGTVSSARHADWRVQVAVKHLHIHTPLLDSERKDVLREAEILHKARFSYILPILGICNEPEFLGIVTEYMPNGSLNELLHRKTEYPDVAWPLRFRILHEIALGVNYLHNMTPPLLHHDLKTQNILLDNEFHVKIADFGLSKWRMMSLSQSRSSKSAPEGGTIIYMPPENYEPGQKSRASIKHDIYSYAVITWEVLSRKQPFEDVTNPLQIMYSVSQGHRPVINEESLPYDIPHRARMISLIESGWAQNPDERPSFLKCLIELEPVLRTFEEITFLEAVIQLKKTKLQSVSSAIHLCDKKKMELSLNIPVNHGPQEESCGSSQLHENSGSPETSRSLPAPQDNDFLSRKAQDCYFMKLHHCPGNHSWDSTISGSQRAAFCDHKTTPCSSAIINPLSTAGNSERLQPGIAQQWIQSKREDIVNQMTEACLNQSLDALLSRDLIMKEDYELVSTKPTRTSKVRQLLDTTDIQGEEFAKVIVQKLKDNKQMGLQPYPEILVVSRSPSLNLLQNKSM
Chain of MAPKAPK3 (human) (Q16644 whole entry, looked up): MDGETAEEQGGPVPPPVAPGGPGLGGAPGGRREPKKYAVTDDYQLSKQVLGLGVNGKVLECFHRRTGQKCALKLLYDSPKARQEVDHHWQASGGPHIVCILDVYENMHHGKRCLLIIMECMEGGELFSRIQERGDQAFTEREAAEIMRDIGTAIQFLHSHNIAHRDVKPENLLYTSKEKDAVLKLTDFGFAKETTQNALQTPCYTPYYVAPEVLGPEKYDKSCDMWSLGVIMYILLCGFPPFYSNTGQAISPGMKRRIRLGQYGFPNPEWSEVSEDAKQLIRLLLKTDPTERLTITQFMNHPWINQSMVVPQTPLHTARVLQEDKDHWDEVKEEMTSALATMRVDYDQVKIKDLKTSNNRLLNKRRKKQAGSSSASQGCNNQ
Chain of PAK6 (human) (Q9NQU5 whole entry, looked up): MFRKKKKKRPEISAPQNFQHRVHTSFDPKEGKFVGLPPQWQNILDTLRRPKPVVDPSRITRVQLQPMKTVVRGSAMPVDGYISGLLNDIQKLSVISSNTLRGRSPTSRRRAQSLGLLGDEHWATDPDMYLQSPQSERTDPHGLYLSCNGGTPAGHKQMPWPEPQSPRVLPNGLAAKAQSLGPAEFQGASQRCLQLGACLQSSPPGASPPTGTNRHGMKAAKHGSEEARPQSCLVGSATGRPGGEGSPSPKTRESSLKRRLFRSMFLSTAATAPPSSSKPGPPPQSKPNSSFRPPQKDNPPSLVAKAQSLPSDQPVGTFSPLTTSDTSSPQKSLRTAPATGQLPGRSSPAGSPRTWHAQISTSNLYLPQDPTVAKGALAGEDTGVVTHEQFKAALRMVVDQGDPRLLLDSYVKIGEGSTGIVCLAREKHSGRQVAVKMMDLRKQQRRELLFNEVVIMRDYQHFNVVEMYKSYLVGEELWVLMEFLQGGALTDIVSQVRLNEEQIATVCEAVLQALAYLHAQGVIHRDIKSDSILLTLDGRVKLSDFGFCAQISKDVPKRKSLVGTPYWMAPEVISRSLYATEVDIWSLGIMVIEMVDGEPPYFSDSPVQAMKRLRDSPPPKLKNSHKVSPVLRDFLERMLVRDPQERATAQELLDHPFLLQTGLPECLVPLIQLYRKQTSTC
Chain of MAPK14 (human) (Q16539 whole entry, looked up): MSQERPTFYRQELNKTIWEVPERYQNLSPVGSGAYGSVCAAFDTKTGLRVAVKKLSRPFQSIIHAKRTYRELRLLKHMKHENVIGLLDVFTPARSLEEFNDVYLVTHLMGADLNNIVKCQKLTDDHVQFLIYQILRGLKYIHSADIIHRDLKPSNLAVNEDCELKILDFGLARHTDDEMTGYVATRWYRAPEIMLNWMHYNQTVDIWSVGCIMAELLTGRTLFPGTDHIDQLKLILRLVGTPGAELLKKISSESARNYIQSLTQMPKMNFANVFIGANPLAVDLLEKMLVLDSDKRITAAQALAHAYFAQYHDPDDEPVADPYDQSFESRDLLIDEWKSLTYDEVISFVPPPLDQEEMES
Chain of PLK1 (human) (P53350 whole entry, looked up): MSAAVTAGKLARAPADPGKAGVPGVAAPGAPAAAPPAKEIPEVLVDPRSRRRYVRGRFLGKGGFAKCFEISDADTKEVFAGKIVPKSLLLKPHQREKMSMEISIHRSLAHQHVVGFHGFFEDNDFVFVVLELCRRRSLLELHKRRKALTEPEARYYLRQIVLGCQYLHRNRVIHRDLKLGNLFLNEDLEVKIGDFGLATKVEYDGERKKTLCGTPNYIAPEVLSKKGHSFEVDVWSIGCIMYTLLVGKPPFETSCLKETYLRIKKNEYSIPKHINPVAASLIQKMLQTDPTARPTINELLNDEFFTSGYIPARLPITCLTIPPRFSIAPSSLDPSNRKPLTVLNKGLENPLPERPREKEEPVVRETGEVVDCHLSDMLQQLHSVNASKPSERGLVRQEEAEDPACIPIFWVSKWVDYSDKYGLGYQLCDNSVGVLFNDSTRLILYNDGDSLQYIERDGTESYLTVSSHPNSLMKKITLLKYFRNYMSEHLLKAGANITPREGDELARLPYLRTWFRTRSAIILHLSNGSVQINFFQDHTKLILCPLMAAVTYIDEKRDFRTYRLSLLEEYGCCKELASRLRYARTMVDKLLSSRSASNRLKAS

`CC1CN(c2nc3ccccn3c(=O)c2N)CC(C)O1` (configuration not stated) showed an inhibition (PHKG1 (human)) of 3%, an inhibition [1] of 0% and an inhibition (MAPKAPK3 (human)) of 70%. It also gave an inhibition (MARK1 (human)) of 26%, an inhibition (MAPK9 (human)) of 6% and an inhibition (PTK6 (human)) of 21%. For the same molecule, the inhibition (ABL1 (human)) was 2%, the inhibition (PIM1 (human)) was 7% and the inhibition (AURKB (human)) was 32%. The inhibition (STK16 (human)) was 6%, the inhibition (MAP3K9 (human)) was 0% and the inhibition (BRSK1 (human)) was 12%. It also gave an inhibition (SRPK1 (human)) of 74%, an inhibition (MAP2K1 (human)) of 7% and an inhibition (FGFR1 (human)) of 34%. The inhibition (MAP2K2 (human)) was 0%, the inhibition (TBK1 (human)) was 0% and the inhibition (PDPK1 (human); ATP 20 µM) was 31%. The inhibition (PDPK1 (human); ATP 50 µM) was 26%, the inhibition (TTK (human)) was 3% and the inhibition (CSNK2A1 (human)) was 97%. For the same molecule, the inhibition (MAPK15 (human)) was 0%, the inhibition (GCK (human)) was 0% and the inhibition (MARK4 (human)) was 56%. For the same molecule, the inhibition (RIPK2 (human)) was 28%, the inhibition (MAPK14 (human)) was 0% and the inhibition (IRAK4 (human)) was 3%. The inhibition (PIM3 (human)) was 1%, the inhibition (CHEK2 (human)) was 0% and the inhibition (CHEK1 (human)) was 0%. For the same molecule, the inhibition (MAPK3 (human)) was 0%, the inhibition [2] was 24% and the inhibition [3] was 0%. It also gave an inhibition (FLT1 (human)) of 54%, an inhibition (MAPK13 (human)) of 0% and an inhibition (PAK6 (human)) of 4%. For the same molecule, the inhibition (AURKA (human)) was 2%, the inhibition (JAK2 JH1 JH2 (human)) was 35% and the inhibition (PAK7 (human)) was 0%. It also gave an inhibition (PLK1 (human)) of 0% and an inhibition (DYRK2 (human)) of 40%.

Work on `CC(C)(C)Nc1c(C2CC2)nc2[nH]cnn12` yielded an inhibition (PHKG1 (human)) of 6%, an inhibition [1] of 0% and an inhibition (MAPKAPK3 (human)) of 10%. For the same molecule, the inhibition (MARK1 (human)) was 0%, the inhibition (MAPK9 (human)) was 3% and the inhibition (PTK6 (human)) was 25%. The inhibition (ABL1 (human)) was 0%, the inhibition (PIM1 (human)) was 11% and the inhibition (AURKB (human)) was 34%. It also gave an inhibition (STK16 (human)) of 0%, an inhibition (MAP3K9 (human)) of 0% and an inhibition (BRSK1 (human)) of 0%. It also gave an inhibition (SRPK1 (human)) of 0%, an inhibition (MAP2K1 (human)) of 0% and an inhibition (FGFR1 (human)) of 65%. It also gave an inhibition (MAP2K2 (human)) of 0%, an inhibition (TBK1 (human)) of 1% and an inhibition (PDPK1 (human); ATP 20 µM) of 3%. It also gave an inhibition (PDPK1 (human); ATP 50 µM) of 11%, an inhibition (TTK (human)) of 10% and an inhibition (CSNK2A1 (human)) of 9%. The inhibition (MAPK15 (human)) was 60%, the inhibition (GCK (human)) was 8% and the inhibition (MARK4 (human)) was 15%. It also gave an inhibition (RIPK2 (human)) of 0%, an inhibition (MAPK14 (human)) of 0% and an inhibition (IRAK4 (human)) of 0%. The inhibition (PIM3 (human)) was 0%, the inhibition (CHEK2 (human)) was 0% and the inhibition (CHEK1 (human)) was 0%. The inhibition (MAPK3 (human)) was 0%, the inhibition [2] was 31% and the inhibition [3] was 0%. The inhibition (FLT1 (human)) was 12%, the inhibition (MAPK13 (human)) was 0% and the inhibition (PAK6 (human)) was 0%. The inhibition (AURKA (human)) was 16%, the inhibition (JAK2 JH1 JH2 (human)) was 3% and the inhibition (PAK7 (human)) was 18%. For the same molecule, the inhibition (PLK1 (human)) was 0% and the inhibition (DYRK2 (human)) was 4%.
